In ChEMBL document CHEMBL1201862, “PubChem BioAssay data set” (2004):
Calls of active or inactive are those of the source.

Legend:
[1] = luciferase reporter signal suppression in cells – H4 neuroglioma cells, luminescence, dose response (AID 1990); type: functional, cell-based
BJ [2] = test: BJ-TERT fibroblast viability loss – cell-based, RAS-independent, luminescence, dose response (AID 1933); type: functional; settings: Homo sapiens
[3] = Luminescence Cell-Based Dose Response HTS to Identify Inhibitors of 5'UTR Stem-Loop Driven Prion Protein mRNA Translation in H4 Neuroglioblastoma Cells. [Related pubchem assays: 1827 (Project Summary), 1813 (Primary HTS)]; type: functional
[4] = alpha-synuclein stem-loop luciferase translation blockers – H4 neuroglioma cells, luminescence, confirmation (AID 1988); type: functional, cell-based
BJ [5] = test: cells; type: functional, cell-based; settings: Homo sapiens
[6] = viability of PTEN-deleted HCT116 cells – cell-based, HCT116 PTEN knockout, dose response (AID 1047); type: functional;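 further: HCT116 colon tumor cells with PTEN knocked out; cells exposed to compound for 60 hours before readout; potency for loss of cell viability measured by luminescence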
[7] = viability of HCT116 lacking mutant beta-catenin – cell-based, human colon tumor, dose response (AID 1045); type: functional;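 further: HCT116 colon tumor cells with beta catenin knocked out; cells exposed to compound for 60 hours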
BJ [8] = test: BJ-TERT-LT-ST fibroblast viability loss – cell-based, RAS-independent, luminescence, dose response (AID 1935); type: functional; settings: Homo sapiens;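 further: BJ fibroblasts immortalized with TERT plus LT and ST oncogenes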
[9] = DRD fibroblast viability loss – cell-based, non-viral oncogenic, luminescence, dose response (AID 1934); type: functional; settings: Homo sapiens
[10] = target: T1, Ubiquitin-conjugating enzyme E2 N (Homo sapiens, UniProt P61088); type: functional;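 further: Dose-response confirmation in a TR-FRET assay detecting UBC13-driven polyubiquitin chain formation, inhibition measured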
T1 sequence (P61088 whole entry): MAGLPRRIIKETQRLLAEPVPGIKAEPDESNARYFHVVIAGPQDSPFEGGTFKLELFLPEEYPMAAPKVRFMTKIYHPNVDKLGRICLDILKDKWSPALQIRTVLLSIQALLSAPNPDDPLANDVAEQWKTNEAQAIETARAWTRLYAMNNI

Streptokinase A = target: T2, Streptokinase A (Streptococcus pyogenes serotype M1, UniProt P10520); test: viability-normalized secreted streptokinase activity reduction – plasminogen activation absorbance, OD405, dose response (AID 1914); type: functional, Streptococcus pyogenes M1 GAS;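 further: secreted streptokinase activity via plasminogen activation per viability signal from cell pellet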
T2 sequence (P10520 whole entry): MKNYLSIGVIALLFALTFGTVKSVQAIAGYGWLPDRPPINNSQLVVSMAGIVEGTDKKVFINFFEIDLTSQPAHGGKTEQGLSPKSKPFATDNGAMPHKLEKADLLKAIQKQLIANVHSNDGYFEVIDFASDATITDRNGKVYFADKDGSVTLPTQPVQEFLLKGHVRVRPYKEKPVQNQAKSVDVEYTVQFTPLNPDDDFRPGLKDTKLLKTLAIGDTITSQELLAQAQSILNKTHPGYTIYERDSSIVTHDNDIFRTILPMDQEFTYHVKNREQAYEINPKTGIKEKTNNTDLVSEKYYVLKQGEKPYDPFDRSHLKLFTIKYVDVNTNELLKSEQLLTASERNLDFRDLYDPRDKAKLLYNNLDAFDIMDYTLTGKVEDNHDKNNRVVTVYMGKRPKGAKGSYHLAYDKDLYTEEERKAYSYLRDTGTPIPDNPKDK

[11] = viability loss in THP-1 monocytes – THP-1 cells, cytotoxicity control for Vif-APOBEC3G degradation inhibitor project, dose response (AID 1117359); type: functional; settings: THP-1
Nonstructural protein 1 = Nonstructural protein 1 (Influenza A virus, UniProt Q194T2); type: functional, Influenza A virus (A/California/07/2009(H1N1))
Leucine aminopeptidase = target: T3, Leucine aminopeptidase (Plasmodium falciparum 3D7, UniProt Q8IL11); test: P. falciparum M17LAP inhibitors, primary screen, biochemical, fluorogenic H-Leu-NHMec substrate, 1536-well (AID 1619); type: functional
T3 sequence (Q8IL11 whole entry): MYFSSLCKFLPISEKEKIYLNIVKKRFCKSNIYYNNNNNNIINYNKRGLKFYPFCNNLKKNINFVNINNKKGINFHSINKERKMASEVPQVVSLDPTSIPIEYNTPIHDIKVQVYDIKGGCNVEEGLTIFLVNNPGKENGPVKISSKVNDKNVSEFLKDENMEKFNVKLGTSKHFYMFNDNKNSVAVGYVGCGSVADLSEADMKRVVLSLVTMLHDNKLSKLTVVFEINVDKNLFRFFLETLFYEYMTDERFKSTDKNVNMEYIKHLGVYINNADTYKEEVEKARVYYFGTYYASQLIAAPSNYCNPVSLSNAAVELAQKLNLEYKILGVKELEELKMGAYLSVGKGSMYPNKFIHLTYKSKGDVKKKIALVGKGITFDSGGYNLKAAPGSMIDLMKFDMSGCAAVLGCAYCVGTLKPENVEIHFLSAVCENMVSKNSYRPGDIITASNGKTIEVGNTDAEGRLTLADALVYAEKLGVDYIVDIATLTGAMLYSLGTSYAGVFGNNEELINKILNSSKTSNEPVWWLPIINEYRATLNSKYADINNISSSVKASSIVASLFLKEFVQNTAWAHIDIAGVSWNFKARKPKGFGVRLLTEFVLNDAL

Nonstructural protein 1, sequence (Q194T2 whole entry): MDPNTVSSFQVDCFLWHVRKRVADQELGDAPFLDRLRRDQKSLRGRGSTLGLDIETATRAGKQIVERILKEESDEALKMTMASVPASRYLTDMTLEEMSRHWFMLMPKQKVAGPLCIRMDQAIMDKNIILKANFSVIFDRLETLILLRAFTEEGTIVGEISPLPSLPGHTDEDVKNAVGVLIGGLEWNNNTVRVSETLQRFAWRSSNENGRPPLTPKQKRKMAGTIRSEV

For COc1cc(/C=C(/C#N)c2nc3ccccc3[nH]2)ccc1OCC(=O)Nc1ccccc1C(C)C, the EC50 [1] was 1.4 µM (active), the EC50 (BJ [2]) was 2.97 µM (active) and the EC50 [3] was 3.34 µM (active). The EC50 [4] was 0.56 µM (active), the EC50 (BJ [5]) was 3.15 µM (active) and the EC50 [6] was 19.6 µM (active). For the same compound, the EC50 [7] was 3.91 µM (active), the EC50 (BJ [8]) was 5.76 µM (inconclusive) and the EC50 [9] was 2.81 µM (active).
For Cc1ccc(NC(=O)CSc2nc3ccccc3c(=O)n2CCCC(=O)NCCCN2CCOCC2)cc1C, the IC50 [10] was > 20 µM (inactive).
In the case of CCN1CCN(Cc2ccc(NC(=O)c3cc(NC(=O)c4cc(-c5ccc(OC)cc5)n[nH]4)cc(OC)c3)cc2C(F)(F)F)CC1, the EC50 (Streptokinase A) is reported as > 150 µM (not active) and the IC50 [10] is reported as > 20 µM (inactive).
In the case of COc1ccc2nc(N3CCN(C(=O)c4ccc5ncsc5c4)CC3)sc2c1, the CC50 [11] is reported as > 40 µM (active).
For CN(CC(=O)O)Cc1nc2ccccc2[nH]1, the IC50 (Nonstructural protein 1) was 11.6 µM (active).
For O=C(c1ccco1)N1CCN(C(=O)c2[nH]ncc2[N+](=O)[O-])CC1, the IC50 (Leucine aminopeptidase) was 2.22 µM (active).
For O=C(c1ccco1)N1CCN(C(=O)c2cn(-c3ccccc3)nc2-c2ccccc2)CC1, the CC50 [11] was 32.8 µM (active).
With CC1CCN(C(=O)c2ccc3c(c2NCCO)C(=O)c2ccccc2C3=O)CC1 the IC50 (Nonstructural protein 1) was 24.5 µM (active).
For Clc1ccccc1CNc1ncnc2nc[nH]c12, the IC50 (Leucine aminopeptidase) was 48.3 µM (active).
